Test results reported in publication PMC3542272, “A Homogeneous, High-Throughput Assay for Phosphatidylinositol 5-Phosphate 4-Kinase with a Novel, Rapid Substrate Preparation” (PLoS ONE, 2013).
Several values for one entry are separate records, joined by “and”; a condition that tells them apart may be missing. Identical values can stand only once. Entries after “also recorded” stand apart in the source; their conditions may differ. Blank lines part the entries; values can stand above or below the molecule they belong to.

Legend:
PI5P4Kα [1] = target: T1, PI5P4Kα (Homo sapiens, UniProt P48426); experiment: Miniaturized 1536-well luciferase-coupled bioluminescence (ADP-Glo) PI5P4Kα enzyme activity assay; format: biochemical; settings: for inhibitory activity against PI5P4Kα (in words): miniaturized assay / LOPAC1280 screen
T1 construct: made in house
T1 sequence (P48426 1-406): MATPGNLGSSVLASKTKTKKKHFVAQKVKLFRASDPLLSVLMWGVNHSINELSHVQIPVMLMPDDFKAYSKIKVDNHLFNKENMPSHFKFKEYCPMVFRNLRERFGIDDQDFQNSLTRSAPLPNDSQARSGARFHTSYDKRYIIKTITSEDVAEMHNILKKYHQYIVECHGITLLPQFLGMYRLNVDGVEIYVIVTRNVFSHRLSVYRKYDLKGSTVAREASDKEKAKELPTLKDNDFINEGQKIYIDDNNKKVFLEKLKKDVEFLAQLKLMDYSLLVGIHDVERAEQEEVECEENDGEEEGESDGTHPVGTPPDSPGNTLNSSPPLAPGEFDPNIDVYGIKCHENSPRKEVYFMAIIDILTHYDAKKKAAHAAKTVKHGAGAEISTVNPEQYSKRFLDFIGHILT
Experimental: PI5P4Kα (52.4 µL) was added to the lipid reagent (3 mL, described above) to form the enzyme-lipid mixture. First, 2 µL of the enzyme/lipid substrate reagent (2 µg/mL PI5P4Kα final concentration) were dispensed into a white solid-bottom 1536-well plate in columns 1–2, […] using a Flying Reagent Dispenser (FRD, Beckman Coulter, Fullerton, CA, USA). Into columns 3 and 4, 2 µL of a no-lipid and no-enzyme control were dispensed, respectively, where the lipid was replaced by DMSO or the enzyme was replaced by buffer (20 mM Hepes 7.4, 0.1% CHAPS) in the enzyme-lipid mixture. Then, 23 nL of the library compounds and control compounds were transferred by a 1536 pintool (Kalypsys Systems, San Diego, CA, USA) into wells 5–48 and 1–4, respectively. To initiate the reaction, 1 µL of the ATP solution (20 mM Hepes pH 7.4, 60 mM MgCl2, 0.015 mM ATP and 0.1% CHAPS) was added. The final concentration of DMSO in the reaction was 5%. The resulting mixture was incubated at room temperature in the dark for one hour, at which time 2 µL of ADP-Glo reagent 1 were added to stop the reaction and remove any remaining ATP. After a 45-minute incubation, 4 µL of the ADP-Glo reagent 2 were added and allowed to incubate for 30 minutes. The luminescence was then read with a ViewLux high-throughput CCD imager (Perkin Elmer, Waltham, MA, USA). A total of six plates were assayed: one DMSO plate for monitoring the background trends and five concentrations of the LOPAC library (152, 76, 15, 3 and 0.6 µM final assay concentrations, respectively). The top concentration in the assay was attained by two sequential pin transfers of the top concentration of the compound library.
Screening data were corrected and normalized, and concentration-response curves were derived using in-house algorithms. Overall assay performance, including trends in Z’ factor, % CV, and S/B, were recorded. Percent activity was computed after normalization using the median values of the uninhibited enzyme control (32 wells in column 1) and the no-enzyme, or 100% inhibited, control (32 wells, column 4). Additionally, the compound structures were evaluated, and the long chain compounds such as the C18 containing compounds from LOPAC^1280 that are likely to act by disrupting the lipid vesicles were eliminated. Selected actives were procured for re-testing in the primary screening assay and for use in the counter assays and substrate competition assay.

PI5P4Kα [2] = target: T1, PI5P4Kα; experiment: Substrate (ATP) competition assay, miniaturized ADP-Glo PI5P4Kα assay; format: biochemical; settings: for dependence of potency on ATP: varied ATP concentration; for mode of inhibition with respect to ATP: IC50 vs [ATP]/Km, seven ATP concentrations
From the text: The experiment was otherwise conducted as described above for the miniaturized ADP-Glo enzyme assay.

GST-PI5P4Kα = target: T2, GST-PI5P4Kα (Homo sapiens, UniProt P48426); experiment: γ-32P-ATP incorporation assay and TLC (radiometric PI5P4K assay); format: biochemical
T2 construct: made in house
T2 sequence (P48426 1-406): T1 sequence (P48426 1-406)
Experimental: The PI5P4K assay was carried out as described in [10], [22], [23]. Briefly, the kinase reaction was carried out in a total of 50 µL of kinase buffer containing 20 µL of the resuspended lipids, 50 mM HEPES pH 7.4, 10 mM MgCl2, 10 µM non-radiolabeled ATP, 10 µCi [γ-^32P]-ATP with 0.1 µg of GST-PI5P4Kα for 7 minutes at room temperature. The reaction was terminated by adding 20 µL of 4 N HCl. Phosphoinositides were extracted by adding 70 µL of methanol/chloroform (1∶1, vol:vol) mix and subjected to TLC (thin-layer chromatography) separation using heat-activated 2% […] silica gel 60 plates (20 cm×20 cm, EMD Chemicals Inc., Billerica, MA, USA) and a 1-propanol/2 M acetic acid (65∶35, vol:vol) solvent system. The radiolabeled product, PI(4,5)P2, was quantified with a Phosphorimager (Molecular Dynamics, STORM840, GE Healthcare, Waukesha, WI, USA).

PI5P4Kα [3] = target: T1, PI5P4Kα; experiment: Miniaturized 1536-well luciferase-coupled bioluminescence (ADP-Glo) PI5P4Kα enzyme activity assay; format: biochemical; settings: freshly plated stock of reacquired compound, 11-point titration
IGF1R = tested on: IGF1R; set-up: method as in PMID 11123895; settings: cited from earlier work
[4] = target: insulin-like growth factor 1 receptor (IGF1R); set-up: method as in PMID 11123895; settings: cited from earlier work
[5] = LOPAC1280 qHTS pilot screen, 5 µM ATP, 75 µM PI5P, 5% DMSO

IC50 (PI5P4Kα [1]; [5]): 50 µM
SMILES: N#C/C(=C\c1ccc(O)c(O)c1)C(=O)NCCCc1ccccc1 [tyrphostin AG 555]

IC50 (PI5P4Kα [1]; [5]): 89 µM
SMILES: N#C/C(=C\c1ccc(O)c(O)c1)C(=O)Nc1ccccc1 [tyrphostin AG 494]

IC50 (PI5P4Kα [1]; weak inhibitors, ADP-Glo assay): ~30 µM | dependence of potency on ATP (PI5P4Kα [2]): did not vary with ATP
SMILES: CCCCCCCC/C=C\CCCCCCCC(=O)N[C@@H](CO)Cc1ccc(O)cc1 [OMDM-2, (R)-N-oleoyl Tyrosinol]

IC50 (PI5P4Kα [1]; [5]): 18 µM
SMILES: N#C/C(=C\c1c[nH]c2ccccc12)C(=O)c1ccc(O)c(O)c1 [tyrphostin AG 808]

IC50 (PI5P4Kα [1]; [5]): 20 µM
SMILES: N#C/C(=C\c1ccc(O)c(O)c1)C(N)=S [tyrphostin 47]

SMILES: N#CC(C#N)=Cc1ccc(O)c(O)c1 [tyrphostin 23]
IC50 (PI5P4Kα [1]; [5]): 45 µM

IC50 (PI5P4Kα [1]; weak inhibitors, ADP-Glo assay): ~30 µM | dependence of potency on ATP (PI5P4Kα [2]): did not vary with ATP
SMILES: CCCCCCCC/C=C\CCCCCCCC(N)=O [oleamide]

inhibitory activity against PI5P4Kα (in words) (PI5P4Kα [1]): identified as inhibitors
SMILES: CCCCCCCCCCCCCCCCCCOC[C@H](COP(=O)(O)OCC[N+](C)(C)C)OC [1-O-Octadecyl-2-O-methyl-sn-glycero-3-phosphorylcholine]

SMILES: N#CC(C#N)=Cc1ccc(O)c(O)c1 [AG18]
inhibition of PI5P4Kα (in words) (GST-PI5P4Kα; tested at 100 µM): not to significantly inhibit

IC50 (PI5P4Kα [1]; [5]): 5 µM
SMILES: N#CC(C#N)=C(N)/C(C#N)=C/c1cc(O)c(O)c(O)c1 [tyrphostin 51]

IC50 (PI5P4Kα [1]; [5]): 100 µM
SMILES: COc1cc2ncnc(Nc3cccc(Cl)c3)c2cc1OC [tyrphostin AG 1478]

SMILES: N#C/C(=C\c1ccc(O)c(O)c1)C(=O)NCc1ccccc1 [tyrphostin AG 490]
IC50 (PI5P4Kα [1]; [5]): 89 µM

inhibition of PI5P4Kα (in words) (GST-PI5P4Kα; tested at 10 µM due to solubility limitations): not to significantly inhibit
SMILES: CC(C)[C@H](CO)Nc1nc(Nc2ccc(C(=O)O)c(Cl)c2)c2ncn(C(C)C)c2n1 [PVB, purvalanol B]

inhibition of PI5P4Kα (in words) (GST-PI5P4Kα; tested at 100 µM): not to significantly inhibit
SMILES: Cc1[nH]c(/C=C2\C(=O)Nc3ccccc32)c(C)c1CCC(=O)O [SU6668]

inhibition of PI5P4Kα (in words) (GST-PI5P4Kα; tested at 100 µM): not to significantly inhibit
SMILES: COc1c(C)c2c(c(O)c1C/C=C(\C)CCC(=O)O)C(=O)OC2 [MP, mycophenolate]

SMILES: CC(C)(C)c1cc(C=C(C#N)C#N)cc(C(C)(C)C)c1O [AG17]
inhibition of PI5P4Kα (in words) (GST-PI5P4Kα; tested at 100 µM): not to significantly inhibit

IC50 (PI5P4Kα [1]; [5]): 2.5 µM and 2 µM | IC50 (PI5P4Kα [3]): 1 µM | mode of inhibition with respect to ATP (PI5P4Kα [2]; listed as I-OMe tyrphostin AG-538): ATP-competitive inhibitor | Ki (PI5P4Kα [2]; seven ATP concentrations 0.25xKm to 10xKm, Km of ATP 5 µM): 0.5 µM
SMILES: COc1cc(/C=C(\C#N)C(=O)c2ccc(O)c(O)c2)cc(I)c1O [I-OMe-AG-538]
inhibition of IGF1R in a cell assay (in words) (IGF1R): inhibited IGF1R in a similar dose-dependent manner | mode of inhibition with respect to ATP (PI5P4Kα [2]): competitive inhibition; also recorded: competitive with respect to ATP

SMILES: N#C/C(=C\c1ccc(O)c(O)c1)C(=O)NCCCNC(=O)/C(C#N)=C/c1ccc(O)c(O)c1 [tyrphostin AG 537]
IC50 (PI5P4Kα [1]; [5]): 32 µM

inhibition at 100 µM (GST-PI5P4Kα; tested at 100 µM): 75% | IC50 (PI5P4Kα [1]; [5]): 93 µM | inhibitory activity against PI5P4Kα (in words) (PI5P4Kα [1]): confirmed
SMILES: N#CC(C#N)=Cc1cc(O)c(O)c(O)c1 [Tyrphostin AG-82]

IC50 (PI5P4Kα [1]; [5]): 14 µM
SMILES: N#C/C(=C\c1ccc(O)c(O)c1)C(=O)c1ccc(O)c(O)c1 [tyrphostin AG 538]
IC50 [4]: 0.06 µM | inhibition of IGF1R in a cell assay (in words) (IGF1R): inhibited IGF1R in a similar dose-dependent manner
